Values quoted from earlier work, collected in patent US20220273646A1, “PHARMACEUTICAL COMPOSITION OF TEMOZOLOMIDE” (INTAS PHARMACEUTICALS LTD., priority 2019, published 2022).
Where two headings read alike, the source gives them in different places.

How the values were obtained:
[1] = solution from powder for intravenous infusion
[2] = extemporaneously prepared oral suspensions from capsules, 4° C.

Cn1nnc2c(C(N)=O)ncn2c1=O [Temozolomide, 4-methyl-5-oxo-2,3,4,6,8-pentazabicyclo[4.3.0] nona-2,7,9-triene-9-carboxamide]
temozolomide remained intact ([1]; 1.25 mg/mL, 13 weeks at 5° C.): more than 90% | temozolomide remained intact ([1]; 2.5 mg/mL, 9 days at room temperature): more than 90% | time found chemically stable [2]: at least 60 days
